Our source for the RP-LC retention time values is the METLIN SMRT retention time set (Domingo-Almenara et al. 2019).

The nature of this data set: gradient 5% acetonitrile 3 min, to 50% in 2 min, to 85% in 15 min, held 3 min, 100 µL/min. As to conditions: column: Zorbax Extend-C18 2.1 x 50 mm; eluents: water / acetonitrile, 0.1% formic acid. Summed up: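 A Zorbax Extend-C18 column (2.1 × 50 mm, 1.8 μm) run at 100 μL/min with water and acetonitrile, both containing 0.1% formic acid, separated mixtures of ~100 pure standards. The HPLC was coupled to a quadrupole time-of-flight mass spectrometer operated in positive and negative ionization mode, with dead and dwell volumes of 40 μL and 900 μL. Each retention time was taken from a computationally picked adduct peak that was then manually inspected.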
Regarding `COC(=O)c1ncn2c1C(=O)N(c1ccc(C)cc1C)C(C)(C(=O)NCc1ccccc1)C2` (stereo unspecified), the RP-LC retention time was determined as 726 s. The value for `Cc1cc2cc(CNC(=O)C(=O)c3c[nH]c4ccccc34)ccc2[nH]1` was 878 s; that for `Cc1ccccc1CNC(=O)C1(C)CCCN(C(=O)Nc2cccc(F)c2)C1` (stereo unspecified) was 937 s; that for `Cc1cc(N)n(-c2nc(C)nc3sc4c(c23)CCC(C)C4)n1` (stereo unspecified) was 857 s. The value for `Cc1ccc(OCC(=O)Nc2cc3c(cc2C)n(C)c(=O)n3C)cc1` was 980 s. The value for `O=C(Nc1nc(-c2cccc3ccccc23)cs1)C1CCCO1` (stereo unspecified) was 978 s. As for `O=C(c1ccc2cc[nH]c2c1)N1CCN(C(=O)c2nnn3c2COC(c2ccccc2)C3)CC1` (stereo unspecified), the RP-LC retention time came out at 773 s.

The molecule `CCc1nc2cc(-c3noc(-c4ccc(F)cc4)n3)ccc2o1` yielded an RP-LC retention time of 1190 s. The result for `Cc1ccc(CNC(=O)Cc2nnc(-c3cnccn3)o2)cc1C` reads 720 s. As to `COc1ccccc1-c1noc(C2CCCN2C(=O)c2ccc3c(c2)OCO3)n1` (stereo unspecified), the RP-LC retention time is 845 s. In turn, `O=C(NCC(O)(c1ccccc1)C(F)(F)F)c1ccc2nsnc2c1` (stereo unspecified) had an RP-LC retention time of 853 s. The result for `Cc1cc(N2CCCC2)nc(N2CCN(S(=O)(=O)c3ccc4c(c3)Cc3ccccc3-4)CC2)n1` reads 924 s; that for `CCOc1ccccc1NC(=O)C1CCc2nc(N3CCOCC3)ncc2C1` (stereo unspecified), 777 s; that for `CC1CCCN(C(=O)c2cc3c(s2)N(C)CCC3)C1` (stereo unspecified), 976 s. The result for `O=C(NCc1ccc2c(c1)OCCCO2)c1ccc(Br)cc1` reads 884 s; that for `CCOC(=O)Cn1cnc2c(-c3ccc(Br)cc3)csc2c1=O`, 998 s; that for `O=C(NCC1CCCCC1)C1CCN(C(=O)c2ncn3c2COC(c2ccccc2)C3)CC1` (stereo unspecified), 802 s.

The molecule `CCc1ccc(N2CC(c3noc(-c4ccc(Cl)cc4)n3)CC2=O)cc1` (stereo unspecified) returned an RP-LC retention time of 1200 s. The result for `Cc1ccc(C)c(NC(=O)NCCc2cn(C)c3ncccc23)c1` reads 704 s; that for `COc1ccccc1NC(=O)Nc1c(-c2cccc(C)c2)nc2ccccn12`, 700 s; that for `CCOC(=O)NC(=O)c1ccsc1NC(=O)c1ccc([N+](=O)[O-])s1`, 851 s. `Cc1ccc(S(=O)(=O)N2CCC3(CC2)CC(C)(O)CCO3)cc1F` (stereo unspecified) had an RP-LC retention time of 846 s. The value for `CCOC(=O)C1CCN(c2cc3c(cc2NC(=O)NCC(C)C)n(C)c(=O)n3C)CC1` was 685 s. Consider `CCN1C(=O)c2c(C(=O)N3CCOCC3)ncn2CC1(C)C(=O)NCc1ccc(F)cc1` (stereo unspecified), for which the RP-LC retention time worked out at 678 s. The value for `Cn1cc(-c2cc3n(n2)CCC(=O)N3CC(=O)Nc2ccc(Cl)cc2)c2ccccc21` was 902 s; that for `COc1ccc(-c2noc(-c3ccc(N4CCN(c5ccc(OC)cc5)CC4)nc3)n2)cc1` was 1240 s; that for `CCc1ccccc1NC(=O)C1CCN(S(=O)(=O)c2ccc3c(c2)CCCC(=O)N3)CC1` was 757 s.

`C=C1CC2(OC1=O)c1ccccc1CCc1ccccc12` gave an RP-LC retention time of 1140 s. On to `COC(=O)C1=CN(c2ccc(OC)c(OC)c2)c2cc(F)ccc2S1(=O)=O`, for which the RP-LC retention time was 821 s. The result for `COc1ccc(-c2nc(-c3cn(-c4cccc(F)c4)nn3)no2)c(OC)c1` reads 999 s; that for `CC1CN(C2CCCCC2)c2nc3c(c(=O)n(CCN4CCCCC4)c(=O)n3C)n2C1` (stereo unspecified), 722 s.

Molecule `Cc1ccc(N2CC(NC(=O)C(=O)c3c[nH]c4ccccc34)CC2=O)cc1` (stereo unspecified) yielded an RP-LC retention time of 823 s. In turn, `Cc1ccc(N2CCN(CC(O)COc3ccc([N+](=O)[O-])cc3)CC2)cc1` (stereo unspecified) returned an RP-LC retention time of 601 s. The value for `CCOC(=O)c1sc2nc(NC(=O)COc3ccccc3)sc2c1C` was 1040 s; that for `O=C(NCCC1CCN(S(=O)(=O)c2ccccc2)CC1)Nc1cc(F)ccc1F` was 960 s. The value for `CC(=O)NCCc1csc(C2CCN(C(=O)C3CCCO3)CC2)n1` (stereo unspecified) was 581 s; that for `Cc1ccc(Cl)cc1N1CCN(CC(O)COc2ccccc2[N+](=O)[O-])CC1` (stereo unspecified) was 626 s; that for `Cc1ccc(CNC(=O)C2CCN(c3cn[nH]c(=O)c3)CC2)cc1` was 644 s. In turn, `COc1cccc(NS(=O)(=O)c2ccc(-c3c(C)noc3C)cc2)c1` returned an RP-LC retention time of 884 s. The value for `COC(=O)c1onc(C(=O)c2ccccc2)c1C(=O)OC` was 931 s; that for `Cc1cc(N2CCC(NC(=O)Nc3ccc(F)cc3F)C2=O)ccc1F` (stereo unspecified) was 845 s; that for `COc1cccc(-c2cc3n(n2)CCCN(C(=O)COc2ccccc2)C3)c1` was 788 s. The result for `O=C(CCCc1ccccc1)Nc1cccn2c(C3CCC3)nnc12` reads 901 s; that for `Cc1ccc2oc(C(=O)NCc3c(F)cccc3F)cc2n1`, 652 s; that for `Fc1ccc(-c2noc(Cc3nnc(-c4ccc(F)cc4)o3)n2)cc1`, 991 s. The result for `CCn1cnc2ccc(-c3noc(COc4ccccc4OC)n3)cc21` reads 712 s; that for `COc1cccc(C(=O)N2CCN(c3ccc(-c4ccccn4)nn3)CC2)c1OC`, 586 s.

Turning to `O=C(C1CCN(c2nc3ccc(-c4cccnc4)nc3s2)CC1)N1CCOCC1`, the RP-LC retention time was 592 s. The result for `COc1cc(-c2noc(C3CC(=O)N(c4ccc(C)cc4C)C3)n2)cc(OC)c1OC` (stereo unspecified) reads 938 s. The result for `CCc1cc(-c2csc(S(=O)(=O)N3CCN(Cc4ccc5c(c4)OCO5)CC3)c2)on1` reads 753 s. The result for `COCCN(CCOC)C(=O)C12CCC(C)(C(=O)C1)C2(C)C` (stereo unspecified) reads 706 s; that for `O=C(NCc1ccccc1F)c1ccc(CN2CCN(Cc3ccccc3)C(=O)C2=O)cc1`, 770 s; that for `CCC(=O)Nc1ccc(SCC(=O)Nc2ccc(F)c(Cl)c2)nn1`, 772 s. For the molecule `Cc1noc(C2(NC(=O)c3ccc(C)s3)CCCCC2)n1`, the RP-LC retention time was 868 s.

`COc1ccc2c(c1)C1(CCN(S(=O)(=O)c3cc(F)cc(F)c3)C1)C(=O)N2` (stereo unspecified) returned an RP-LC retention time of 872 s. The value for `CSc1ccccc1C(=O)N1CCN(C(=O)C2CC2c2ccc3c(c2)OCO3)CC1` (stereo unspecified) was 754 s; that for `O=c1c2oc3ccccc3c2ncn1Cc1nc(-c2ccc3c(c2)OCO3)no1` was 909 s. The value for `COc1ccc(Cc2nnc3sc(Cc4ccc(OC)c(OC)c4)nn23)cc1` was 815 s; that for `CSc1cccc(NC(=O)CN2CCC3(CC2)N=C(c2ccc(Cl)cc2)C(=O)N3)c1` was 627 s; that for `Cc1noc(-c2ccc(OC3CN(C(=O)c4cccn4C)C3)cc2)n1` was 898 s. The result for `COc1ccc(NC(=O)N(C)CCc2noc(COc3cc(C)cc(C)c3)n2)cc1` reads 907 s; that for `O=C(c1ccccn1)N1CCN(c2cc(-c3cccs3)[nH]n2)CC1`, 648 s; that for `COc1cccc(C2=NN(C(C)=O)C(c3cccc(Br)c3)O2)c1OC(C)=O` (stereo unspecified), 1070 s. `Cn1cccc1-c1cc2n(n1)CCC(=O)N2CCCC(=O)NCCCN1CCCCCC1` yielded an RP-LC retention time of 607 s.

The molecule `O=C(Cn1cnc2nc3c(cc2c1=O)CCCC3)Nc1cccc2c1CCCC2` displayed an RP-LC retention time of 808 s. The result for `COc1cccc(CNC(=O)C2(C)CCCN(C(=O)Nc3ccc(C)cc3C)C2)c1` (stereo unspecified) reads 930 s; that for `CCc1nc2c(NC(=O)c3ccccc3)cccn2n1`, 792 s; that for `CCOCCCNC(=O)N1CCN(c2nc3ccccc3n3cccc23)CC1`, 618 s. Regarding `CCCN(CC1CCOC1)C(=O)Nc1ccccc1CC` (stereo unspecified), the RP-LC retention time amounted to 823 s. The value for `CCC(=O)N1CCOc2ccc(N(C)C)cc2C1` was 570 s; that for `O=C(O)/C(=C/c1ccccc1)c1ccccc1` was 923 s; that for `O=S(=O)(c1ccc(C2CCCCC2)cc1)N1CCOCC1` was 1050 s. The result for `Cc1sc(NC(=O)Cc2csc(-c3ccccc3)n2)nc1-c1ccc(Br)cc1` reads 1270 s; that for `O=C(NCc1ccc(-c2noc(Cc3cccc(F)c3)n2)s1)C1CC1`, 879 s. The value for `COc1ccc(NC(=O)NCCc2cn(C)c3ncccc23)cc1OC` was 612 s.

The molecule `CCOC(=O)C1=C(CN2CCN(c3ccccn3)CC2)NC(=O)NC1c1cccc(OC)c1OC` (stereo unspecified) gave an RP-LC retention time of 615 s. For `CCn1c(=O)c(C)nc2cc(-c3noc(-c4ccc(F)c(F)c4)n3)ccc21`, the RP-LC retention time is 1150 s. As to `CC(=O)c1ccc(NC(=O)c2cnc(-c3ccc(C(F)(F)F)cc3)nc2C)cc1`, the RP-LC retention time is 1030 s.

Consider `N#Cc1cccc(S(=O)(=O)N2CCc3nc(-c4ccc(F)cc4)ncc3C2)c1`, for which the RP-LC retention time is 1030 s. For the molecule `O=S(=O)(Cc1ccc(Cl)cc1)N1CCC(CN2CCCCCC2)CC1`, the RP-LC retention time turned out to be 683 s.

`O=C(COc1ccccc1F)NCC(O)(c1ccccc1)C(F)(F)F` (stereo unspecified) had an RP-LC retention time of 860 s.
